Assay results reported in the supplement of paper PMC10307832.

Key:
Test in all cases: relative viability (nuclei count vs DMSO), 5 days (fraction); higher = more cells survive
XMD13-2 + Linsitinib = compound: C1CC1C(=O)NC2=NNC3=C2C=CC(=C3)C4=CC(=CC=C4)C(=O)NC5CC5 [XMD13-2] + C[C@]1(O)C[C@@H](c2nc(-c3ccc4ccc(-c5ccccc5)nc4c3)c3c(N)nccn32)C1 [Linsitinib] (partner 1 µM)
Procedure, shortened: (§1)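 Lung cancer cell lines were pin-tool dosed in 1536-well plates on the day after seeding, with either a lone drug or a fixed anchor-drug dose plus five library-drug doses (not always all listed) in √10 steps. Nuclei were counted on 4× images after 5 days. Relative viability is the ratio of treated-well to vehicle-well nuclei counts, with each value a median of duplicate plates.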

ALW-II-49-7 + Bortezomib = compound: Cc1ccc(C(=O)Nc2cccc(C(F)(F)F)c2)cc1Nc1cncc(C(N)=O)c1 [ALW-II-49-7] + CC(C)C[C@H](NC(=O)[C@H](Cc1ccccc1)NC(=O)c1cnccn1)B(O)O [Bortezomib] (partner 0.002 µM)
Procedure, shortened: as §1

Dasatinib + Trametinib = compound: Cc1nc(Nc2ncc(C(=O)Nc3c(C)cccc3Cl)s2)cc(N2CCN(CCO)CC2)n1 [Dasatinib] + CC(=O)Nc1cccc(-n2c(=O)n(C3CC3)c(=O)c3c(Nc4ccc(I)cc4F)n(C)c(=O)c(C)c32)c1 [Trametinib] (partner 0.02 µM)
Procedure, shortened: as §1

Cell Line | relative viability (XMD13-2 + Linsitinib; first compound 0.05 µM) | relative viability (XMD13-2 + Linsitinib; first compound 0.1581 µM) | relative viability (XMD13-2 + Linsitinib; first compound 0.5 µM) | relative viability (XMD13-2 + Linsitinib; first compound 1.581 µM) | relative viability (XMD13-2 + Linsitinib; first compound 5 µM) | relative viability (ALW-II-49-7 + Bortezomib; first compound 0.08 µM) | relative viability (ALW-II-49-7 + Bortezomib; first compound 0.253 µM) | relative viability (ALW-II-49-7 + Bortezomib; first compound 0.8 µM) | relative viability (ALW-II-49-7 + Bortezomib; first compound 2.53 µM) | relative viability (ALW-II-49-7 + Bortezomib; first compound 8 µM) | relative viability (Dasatinib + Trametinib; first compound 0.005 µM) | relative viability (Dasatinib + Trametinib; first compound 0.01581 µM) | relative viability (Dasatinib + Trametinib; first compound 0.05 µM) | relative viability (Dasatinib + Trametinib; first compound 0.1581 µM) | relative viability (Dasatinib + Trametinib; first compound 0.5 µM)
NCI-H460 | 1.01 | 0.953 | 0.973 | 0.72 | 0.997 | 0.869 | 1.04 | 1.04 | 0.956 | 1.05 | 0.0853 | 0.0968 | 0.0795 | 0.0504 | 0.0455
LCLC-103H | 1 | 1.1 | 1.25 | 1.18 | 1.14 | 1.03 | 0.859 | 1.1 | 0.9 | 0.962 | 0.687 | 0.598 | 0.574 | 0.535 | 0.516
HCC-827 | 0.873 | 0.9 | 0.874 | 0.9 | 0.863 | 1.13 | 1.03 | 1.03 | 1.1 | 1.03 | 0.545 | 0.486 | 0.492 | 0.157 | 0.132
NCI-H322M | 0.963 | 0.864 | 1.07 | 0.891 | 0.891 | 1.09 | 1.36 | 1.43 | 1.32 | 1.26 | 0.543 | 0.44 | 0.429 | 0.333 | 0.269
NCI-H1666 | 0.869 | 0.804 | 0.741 | 0.818 | 0.86 | 0.663 | 0.79 | 0.87 | 1.04 | 0.928 | 0.879 | 0.858 | 0.986 | 0.776 | 0.833
NCI-H1437 | 1.25 | 1.09 | 1.08 | 1.04 | 1.06 | 0.597 | 0.478 |  | 0.436 | 0.5 | 0.55 | 0.465 | 0.433 | 0.305 | 0.25
NCI-H1792 | 0.631 | 0.519 | 0.586 | 0.661 | 0.515 | 0.745 | 0.878 | 0.82 | 0.922 | 0.95 | 0.343 | 0.272 | 0.324 | 0.218 | 0.0771
NCI-H1355 | 0.973 | 0.834 | 0.851 | 0.825 | 0.894 | 0.983 | 1.26 | 1.23 | 1.2 | 1.08 | 0.48 | 0.346 | 0.5 | 0.293 | 0.265
SK-LU-1 | 1.1 | 1.19 | 1.45 | 0.929 | 1.14 | 0.741 | 1.25 | 1.17 | 1.06 | 0.662 | 0.349 | 0.306 | 0.291 | 0.247 | 0.252
NCI-H2228 | 0.735 | 0.83 | 0.768 | 0.546 | 0.622 | 1.06 | 0.636 | 0.975 | 0.915 | 1.16 | 0.463 | 0.776 | 0.556 | 0.39 | 0.249
NCI-H2347 | 0.973 | 0.951 | 0.973 | 0.924 | 0.972 | 0.539 | 1.28 | 1.08 | 0.23 | 0.566 | 0.25 | 0.277 | 0.221 | 0.157 | 0.164
A-427 | 1.11 | 1.14 | 1.18 | 1.09 | 1 | 1.1 | 0.95 | 0.967 | 1.02 | 1.05 | 0.76 | 0.598 | 0.713 | 0.433 | 0.408
HCC-366 | 0.809 | 0.54 | 0.749 | 0.647 | 0.736 | 1.1 | 0.578 | 1.02 | 1.14 | 1.13 | 0.283 | 0.182 | 0.218 | 0.16 | 0.117
HCC-78 | 0.696 | 0.587 | 0.603 | 0.548 | 0.461 | 0.463 | 0.434 | 0.405 |  | 0.491 | 0.676 | 0.679 | 0.643 | 0.444 | 0.354
